According to PubChem BioAssay AID2060894 (Molecular Pharmacology Branch, DTP, NCI, 2025):

Tested on: K12877-001-R-J1-PDC complex spheroid viability
Test: Anticancer human tumor K12877-001-R-J1-PDC patient-derived lung adenocarcinoma cell line growth inhibition [RAS]
Settings: for IC50: curve of first compound; for viability, T/C: stronger effect = lower value
Method in brief: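 Agents were tested in combination matrices in half-log decrements from a top concentration at or near clinical Cmax (10 microM if undetermined). Targets were multi-cell spheroids of tumour lines plus HUVEC and MSC stromal cells.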
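Further: spheroids exposed to agents for one week before readout.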
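Wherever viability, T/C is given: tumour cells co-cultured with HUVEC and mesenchymal stem cells in spheroids.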

## Nc1ccn(C2OC(CO)C(O)C2(F)F)c(=O)n1 (centres undefined) + C#Cc1c(F)ccc2cc(O)cc(-c3ncc4c(N5CC6CCC(C5)N6)nc(OCC56CCCN5CC(F)C6)nc4c3F)c12
Second compound 0.0316 µM
  IC50: 18.7 nM
Second compound 0.1 µM
  IC50: 17 nM
Second compound 0.316 µM
  IC50: 17.8 nM
Second compound 1 µM
  IC50: 17.6 nM
Second compound 3.16 µM
  IC50: 17.4 nM
Second compound 10 µM
  IC50: 16.2 nM
Second compound 0.0316 µM, first compound 0.00316 µM
  viability, T/C: 98.9%
Second compound 0.0316 µM, first compound 0.01 µM
  viability, T/C: 102%
Second compound 0.0316 µM, first compound 0.0316 µM
  viability, T/C: 7.92%
Second compound 0.0316 µM, first compound 0.1 µM
  viability, T/C: 5.24%
Second compound 0.0316 µM, first compound 0.316 µM
  viability, T/C: 5.93%
Second compound 0.0316 µM, first compound 1 µM
  viability, T/C: 6.36%
Second compound 0.1 µM, first compound 0.00316 µM
  viability, T/C: 119%
Second compound 0.1 µM, first compound 0.01 µM
  viability, T/C: 85.9%
Second compound 0.1 µM, first compound 0.0316 µM
  viability, T/C: 7.72%
Second compound 0.1 µM, first compound 0.1 µM
  viability, T/C: 5.87%
Second compound 0.1 µM, first compound 0.316 µM
  viability, T/C: 5.86%
Second compound 0.1 µM, first compound 1 µM
  viability, T/C: 5.63%
Second compound 0.316 µM, first compound 0.00316 µM
  viability, T/C: 102%
Second compound 0.316 µM, first compound 0.01 µM
  viability, T/C: 92.7%
Second compound 0.316 µM, first compound 0.0316 µM
  viability, T/C: 7.04%
Second compound 0.316 µM, first compound 0.1 µM
  viability, T/C: 5.27%
Second compound 0.316 µM, first compound 0.316 µM
  viability, T/C: 5.95%
Second compound 0.316 µM, first compound 1 µM
  viability, T/C: 6.35%
Second compound 1 µM, first compound 0.00316 µM
  viability, T/C: 102%
Second compound 1 µM, first compound 0.01 µM
  viability, T/C: 88.8%
Second compound 1 µM, first compound 0.0316 µM
  viability, T/C: 9.52%
Second compound 1 µM, first compound 0.1 µM
  viability, T/C: 5.65%
Second compound 1 µM, first compound 0.316 µM
  viability, T/C: 6.02%
Second compound 1 µM, first compound 1 µM
  viability, T/C: 6.24%
Second compound 3.16 µM, first compound 0.00316 µM
  viability, T/C: 106%
Second compound 3.16 µM, first compound 0.01 µM
  viability, T/C: 89%
Second compound 3.16 µM, first compound 0.0316 µM
  viability, T/C: 8.02%
Second compound 3.16 µM, first compound 0.1 µM
  viability, T/C: 4.94%
Second compound 3.16 µM, first compound 0.316 µM
  viability, T/C: 5.19%
Second compound 3.16 µM, first compound 1 µM
  viability, T/C: 5.82%
Second compound 10 µM, first compound 0.00316 µM
  viability, T/C: 101%
Second compound 10 µM, first compound 0.01 µM
  viability, T/C: 79.4%
Second compound 10 µM, first compound 0.0316 µM
  viability, T/C: 8.95%
Second compound 10 µM, first compound 0.1 µM
  viability, T/C: 5.43%
Second compound 10 µM, first compound 0.316 µM
  viability, T/C: 6.72%
Second compound 10 µM, first compound 1 µM
  viability, T/C: 5.24%

## Nc1ccn(C2OC(CO)C(O)C2(F)F)c(=O)n1 (centres undefined) + CCn1c(-c2cccnc2C(C)OC)c2c3cc(ccc31)N1CCOC(CC(NC(=O)C(C(C)C)N(C)C(=O)C3(F)CCN(C(=O)C#CC(C)(C)N(C)C)CC3)C(=O)N3CCCC(N3)C(=O)OCC(C)(C)C2)C1
Second compound 0.000949 µM
  IC50: 14.5 nM
Second compound 0.003 µM
  IC50: 13.2 nM
Second compound 0.00949 µM
  IC50: 12.7 nM
Second compound 0.03 µM
  IC50: 12.4 nM
Second compound 0.0949 µM
  IC50: 10.5 nM
Second compound 0.3 µM
  IC50: 5.89 nM
Second compound 0.000949 µM, first compound 0.00316 µM
  viability, T/C: 83.5%
Second compound 0.000949 µM, first compound 0.01 µM
  viability, T/C: 71.9%
Second compound 0.000949 µM, first compound 0.0316 µM
  viability, T/C: 4.44%
Second compound 0.000949 µM, first compound 0.1 µM
  viability, T/C: 3.87%
Second compound 0.000949 µM, first compound 0.316 µM
  viability, T/C: 3.37%
Second compound 0.000949 µM, first compound 1 µM
  viability, T/C: 4.46%
Second compound 0.003 µM, first compound 0.00316 µM
  viability, T/C: 82.3%
Second compound 0.003 µM, first compound 0.01 µM
  viability, T/C: 64.6%
Second compound 0.003 µM, first compound 0.0316 µM
  viability, T/C: 4.22%
Second compound 0.003 µM, first compound 0.1 µM
  viability, T/C: 3.94%
Second compound 0.003 µM, first compound 0.316 µM
  viability, T/C: 5.22%
Second compound 0.003 µM, first compound 1 µM
  viability, T/C: 3.83%
Second compound 0.00949 µM, first compound 0.00316 µM
  viability, T/C: 79.7%
Second compound 0.00949 µM, first compound 0.01 µM
  viability, T/C: 61.6%
Second compound 0.00949 µM, first compound 0.0316 µM
  viability, T/C: 5.4%
Second compound 0.00949 µM, first compound 0.1 µM
  viability, T/C: 4.58%
Second compound 0.00949 µM, first compound 0.316 µM
  viability, T/C: 3.59%
Second compound 0.00949 µM, first compound 1 µM
  viability, T/C: 3.51%
Second compound 0.03 µM, first compound 0.00316 µM
  viability, T/C: 82.2%
Second compound 0.03 µM, first compound 0.01 µM
  viability, T/C: 60.4%
Second compound 0.03 µM, first compound 0.0316 µM
  viability, T/C: 3.17%
Second compound 0.03 µM, first compound 0.1 µM
  viability, T/C: 4.94%
Second compound 0.03 µM, first compound 0.316 µM
  viability, T/C: 4.16%
Second compound 0.03 µM, first compound 1 µM
  viability, T/C: 3.02%
Second compound 0.0949 µM, first compound 0.00316 µM
  viability, T/C: 77.2%
Second compound 0.0949 µM, first compound 0.01 µM
  viability, T/C: 52%
Second compound 0.0949 µM, first compound 0.0316 µM
  viability, T/C: 5.2%
Second compound 0.0949 µM, first compound 0.1 µM
  viability, T/C: 3.34%
Second compound 0.0949 µM, first compound 0.316 µM
  viability, T/C: 2.8%
Second compound 0.0949 µM, first compound 1 µM
  viability, T/C: 3.38%
Second compound 0.3 µM, first compound 0.00316 µM
  viability, T/C: 71.6%
Second compound 0.3 µM, first compound 0.01 µM
  viability, T/C: 31.5%
Second compound 0.3 µM, first compound 0.0316 µM
  viability, T/C: 3.46%
Second compound 0.3 µM, first compound 0.1 µM
  viability, T/C: 2.66%
Second compound 0.3 µM, first compound 0.316 µM
  viability, T/C: 3.3%
Second compound 0.3 µM, first compound 1 µM
  viability, T/C: 3.43%
